Experimental data: US10407467B2, “Polymyxin derivatives and their use in combination therapy together with different antibiotics” (priority 2013, dated 2019)
Where two headings read alike, the source gives them in different places. Marks after values point to notes of the source that are not given here. Bridge positions count the residues as written; N and C are the ends. Square brackets hold non-standard residues; d marks the D form. Peptide text beside a SMILES is read from it. * marks the point of attachment. ξ: configuration not given here. ξβ3hGly(cHex) = NC(CC(=O)*)C1CCCCC1; Thr(3ξ) = CC(O)[C@H](N)C(=O)O; Dab = NCC[C@H](N)C(=O)O

Experiments:
[1] = rats, 8 mg/kg BID regimen, seven days, compared to Colistin at the same dose regimen
Protocol: After one week acclimatisation, male Sprague-Dawley rats were surgically prepared with a jugular cannula and were housed individually, as required, either in pre-assigned housing cages or metabolic cages. Colistin and the Example Compounds were prepared in saline.
Compounds were introduced via the jugular cannula twice a day 7 hours apart for seven days. Each dose was increased progressively for three days up to the top dose that was then administered until termination of the study. Twenty-four hour urine collection (on ice) was performed at pre-dose and on days 4 and 7. The dose regimen is set out in Table 10 below.
The doses in the table are indicated in mg drug base/kg (free base).
The activity in urine of the N-acetyl-beta-D-glucosaminidase (NAG) was determined spectrophotometrically using the NAG assay kit from Roche Applied Science. Biomarkers of kidney injury were determined using the Kidney Injury Panel II from the Multi-Spot® Assay System (Meso Scale Discovery).

HK-2 cell line = assay: In vitro renal cell toxicity assay (resazurin reduction); format: cell-based, human; conditions: HK-2 cells, 24 h, resazurin reduction; mean values of up to 6 independent studies
E. coli ATCC25922 = tested on: E. coli ATCC25922
Protocol: Mice were rendered temporarily neutropenic by immunosuppression with cyclophosphamide at 150 mg/kg 4 days before infection and 100 mg/kg 1 day before infection by intraperitoneal injection.
Compounds were administered in solution by intravenous (IV) injection into the lateral tail vein. […] The vehicle control group was treated with vehicle (0.9% saline for injection) also at 10 mL/kg IV thrice at 1, 3.5 and 6 hours post infection.
(§1) At 1 hour post infection, 4 animals were humanely euthanized using pentabarbitone overdose to provide a pre-treatment control group. At 9 hours post infection, the clinical condition of all animals was assessed prior to them being humanely euthanized by pentabarbitone overdose. Animal weight was determined before both thighs were removed and weighed individually. Individual thigh tissue samples were homogenized in ice cold sterile phosphate buffered saline. Thigh homogenates were then quantitatively cultured onto CLED agar and incubated at 37° C. for 24 hours before colonies were counted.

P. aeruginosa ATCC27853 = format: in vivo, Pseudomonas aeruginosa; conditions: 1:1 with rifampicin at a total dose of 5 mg/kg, IV at 1, 3.5 and 6 hours
Protocol: as §1, with “Compounds were administered in solution by intravenous (IV) bolus injection into the lateral tail vein. […] At 1” for “At 1”

Molecule | levels of the renal biomarkers NAG, albumin and cystatin C in urine [1] | IC50 HK-2 cells (HK-2 cell line) | log reduction in bacterial counts compared to the non-treated control (E. coli ATCC25922; 1:1 combination with Rifampicin at 4 mg/Kg total dose) [log] | Log reduction from vehicle (CFU/g) (E. coli ATCC25922; Table 9, monotherapy 0.125 mg/kg IV at 1, 3.5 and 6 h post infection, 9 h) [log CFU/g] | Log reduction from vehicle (CFU/g) (E. coli ATCC25922; Table 9, monotherapy 0.5 mg/kg IV at 1, 3.5 and 6 h post infection, 9 h) [log CFU/g] | Log reduction from vehicle (CFU/g) (E. coli ATCC25922; Table 12, alone 4 mg/kg (sulfate salt) IV) [log CFU/g] | log reduction in bacterial counts compared to non-treated control (P. aeruginosa ATCC27853) [log] | Log reduction from vehicle (CFU/g) (P. aeruginosa ATCC 27853; Table 14, 1 mg/kg (sulfate salt) IV at 1, 3.5 and 6 h, 9 h) [log CFU/g] | Log reduction from vehicle (CFU/g) (P. aeruginosa ATCC 27853; Table 14, 2 mg/kg (sulfate salt) IV at 1, 3.5 and 6 h, 9 h) [log CFU/g] | Log reduction from vehicle (CFU/g) (P. aeruginosa ATCC 27853; Table 14, 4 mg/kg (sulfate salt) IV at 1, 3.5 and 6 h, 9 h) [log CFU/g] | Log reduction from vehicle (CFU/g) (P. aeruginosa ATCC 27853; Table 15, 1 mg/kg (sulfate salt) IV, 9 h) [log CFU/g] | Log reduction from vehicle (CFU/g) (P. aeruginosa ATCC 27853; Table 15, 2 mg/kg (sulfate salt) IV, 9 h) [log CFU/g] | Log reduction from vehicle (CFU/g) (P. aeruginosa ATCC 27853; Table 15, 4 mg/kg (sulfate salt) IV, 9 h) [log CFU/g] | Log reduction from vehicle (CFU/g) (P. aeruginosa ATCC 27853; Table 16, 0.85 mg/kg free base equivalent, infection level ~1×10^4 CFU/mouse thigh) [log CFU/g] | Log reduction from vehicle (CFU/g) (P. aeruginosa ATCC 27853; Table 16, 3.4 mg/kg free base equivalent, infection level ~1×10^4 CFU/mouse thigh) [log CFU/g]
CC(C)C[C@@H]1NC(=O)[C@@H](Cc2ccccc2)NC(=O)[C@H](CCN)NC(=O)[C@@H](NC(=O)[C@H](CCN)NC(=O)[C@@H](NC(=O)CC(N)C2CCCCC2)C(C)O)CCNC(=O)[C@H](C(C)O)NC(=O)[C@H](CCN)NC(=O)[C@H](CCN)NC1=O (stereo partly drawn) [Example 10, [3(R,S)-3-Amino-3-cyclohexane-propanoyl]Polymyxin B nonapeptide] ({ξβ3hGly(cHex)}-[Thr(3ξ)][Dab][Dab][Dab][dF]L[Dab][Dab][Thr(3ξ)]; lactam 3-C) | significantly reduced levels |  |  |  |  |  |  |  |  |  |  |  |  |  | 
Polymyxin B [reference compound] |  | 11^b μg/mL | 4.8 | −0.36 | 1.93 | 3.61 | 5.37 | 0.58 | 1.67 | 5.09 | −0.12 | 1.40 | 3.41 | 1.19 | 4.23
